Measured values published in ChEMBL document CHEMBL3856285, “Recent progress in the identification of adenosine monophosphate-activated protein kinase (AMPK) activators” (Bioorg Med Chem Lett, 2016).
pEC50, pKd: −log10 of the molar value.

Columns and labels:
[1] = target: T1, AMP-activated protein kinase, AMPK (Homo sapiens) (UniProt P54646+O43741+P54619+Q9UGJ0+Q9Y478+Q13131+Q9UGI9); assay: Activation of human recombinant AMPK assessed as increase in ADP accumulation using SAMS peptide after 30 mins by fluorescence assay
[2] = target: T2, AMP-activated protein kinase (AMPK) alpha-1/beta-1/gamma-1 (Homo sapiens) (UniProt P54619+Q9Y478+Q13131); assay: Activation of full length human recombinant AMPK alpha1/beta1/gamma1 expressed in baculovirus infected sf21 cells using SAMS peptide substrate after 30 mins in presence of [33P]ATP by TopCount analysis relative to AMP
T2 sequence (P54619 whole entry, one chain of several): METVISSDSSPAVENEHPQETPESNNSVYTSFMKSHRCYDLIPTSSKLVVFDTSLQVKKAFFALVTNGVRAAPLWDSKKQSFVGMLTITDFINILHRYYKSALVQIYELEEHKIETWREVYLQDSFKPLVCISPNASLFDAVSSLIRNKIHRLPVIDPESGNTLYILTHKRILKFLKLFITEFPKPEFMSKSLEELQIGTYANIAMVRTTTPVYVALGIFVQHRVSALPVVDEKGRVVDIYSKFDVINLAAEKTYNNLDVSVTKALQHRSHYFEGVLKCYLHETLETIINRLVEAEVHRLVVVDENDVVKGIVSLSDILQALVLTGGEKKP
T2 sequence (Q13131 whole entry partner, one chain of several): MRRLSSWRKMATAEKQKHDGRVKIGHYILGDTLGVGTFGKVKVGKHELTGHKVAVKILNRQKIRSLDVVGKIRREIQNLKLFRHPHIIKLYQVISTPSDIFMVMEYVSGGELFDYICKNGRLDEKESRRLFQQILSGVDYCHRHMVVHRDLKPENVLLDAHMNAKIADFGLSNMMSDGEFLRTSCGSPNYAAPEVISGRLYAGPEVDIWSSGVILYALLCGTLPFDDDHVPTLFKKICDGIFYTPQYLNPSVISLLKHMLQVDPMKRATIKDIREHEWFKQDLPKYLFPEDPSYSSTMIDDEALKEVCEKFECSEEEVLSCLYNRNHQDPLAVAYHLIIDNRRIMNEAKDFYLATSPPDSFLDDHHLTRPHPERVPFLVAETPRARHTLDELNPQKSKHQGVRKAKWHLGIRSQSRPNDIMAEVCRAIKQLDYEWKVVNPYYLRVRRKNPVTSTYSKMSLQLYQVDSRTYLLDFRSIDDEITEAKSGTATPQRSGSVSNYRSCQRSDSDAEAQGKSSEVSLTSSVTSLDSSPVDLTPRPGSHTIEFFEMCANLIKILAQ

[3] = target: T3, AMP-activated protein kinase (AMPK) alpha-1/beta-1/gamma-1 (Homo sapiens, UniProt P54619+Q13131+Q9Y478); assay: Activation of full length human His/GST-tagged AMPK alpha1/beta1/gamma1 expressed in baculovirus expression system after 1 hr by Z'Lyte assay
T3 sequence (P54619 whole entry, one chain of several): as the sequence (P54619 whole entry, one chain of several) above
T3 sequence (Q13131 whole entry, one chain of several): as the sequence (Q13131 whole entry partner, one chain of several) above

[4] = system: Mus musculus; assay: Antidiabetic activity in […] ob/ob mouse model assessed as reduction in blood glucose level at 150 mg/kg, po bid for 8 days relative to control; format: functional; settings: 192 h
[5] = target: T1, AMP-activated protein kinase, AMPK (Homo sapiens); assay: Activation of AMPK (unknown origin) assessed as residual activity at 30 uM using AMARAA peptide after 30 mins by DELFIA assay relative to control
[6] = target: T4, 5'-AMP-activated protein kinase subunit beta-2 (Homo sapiens, UniProt O43741); assay: Activation of human recombinant AMPK beta2 expressed in African green monkey COS7 cells or baculovirus infected insect cells assessed as increase in biotinylated […] (1 to 120 residues) peptide phosphorylation at Ser-79 residue measured after 60 mins by Alphascreen assay; set-up: species or system COS-7
T4 sequence (O43741 whole entry): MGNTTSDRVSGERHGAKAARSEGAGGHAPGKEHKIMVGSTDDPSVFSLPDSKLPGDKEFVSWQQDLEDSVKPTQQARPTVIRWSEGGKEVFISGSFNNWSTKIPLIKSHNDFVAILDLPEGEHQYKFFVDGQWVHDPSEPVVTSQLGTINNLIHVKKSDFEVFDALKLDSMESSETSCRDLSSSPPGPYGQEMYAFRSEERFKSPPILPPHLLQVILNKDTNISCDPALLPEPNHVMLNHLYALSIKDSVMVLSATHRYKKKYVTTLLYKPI

[7] = target: T5, 5'-AMP-activated protein kinase subunit beta-1 (Homo sapiens, UniProt Q9Y478); assay: Activation of human recombinant AMPK beta1 expressed in African green monkey COS7 cells or baculovirus infected insect cells assessed as increase in biotinylated […] (1 to 120 residues) peptide phosphorylation at Ser-79 residue measured after 60 mins by Alphascreen assay; set-up: species or system COS-7
T5 sequence (Q9Y478 whole entry): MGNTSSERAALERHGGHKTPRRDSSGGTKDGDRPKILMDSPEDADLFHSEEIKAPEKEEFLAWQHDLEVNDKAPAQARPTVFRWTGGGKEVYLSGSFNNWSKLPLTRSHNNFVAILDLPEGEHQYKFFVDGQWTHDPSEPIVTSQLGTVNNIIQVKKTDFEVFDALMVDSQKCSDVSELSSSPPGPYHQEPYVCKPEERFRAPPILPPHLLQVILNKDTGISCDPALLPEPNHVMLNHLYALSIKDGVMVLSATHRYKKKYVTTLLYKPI

[8] = target: T3, AMP-activated protein kinase (AMPK) alpha-1/beta-1/gamma-1; assay: Activation of full length human recombinant AMPK alpha1/beta1/gamma1 expressed in baculovirus infected sf21 cells using 5'-FAM-SAMS peptide substrate after 45 mins by fluorescence assay
[9] = target: T2, AMP-activated protein kinase (AMPK) alpha-1/beta-1/gamma-1 (Homo sapiens); assay: Activation of full length human recombinant AMPK alpha1/beta1/gamma1 expressed in baculovirus infected sf21 cells using 5'-FAM-SAMS peptide substrate after 45 mins by fluorescence assay relative to AMP
[10] = target: T6, AMPK alpha2/beta2/gamma1 (Homo sapiens) (UniProt P54646+O43741+P54619); assay: Activation of full length human His6-tagged AMPK alpha2/beta2/gamma1 expressed in Escherichia coli BL21-CodonPlus (DE3)-RIPL using FL-Peptide 7 substrate incubated for 2 hrs by fluorescence assay relative to AMP
T6 sequence (P54619 whole entry, looked up, one chain of several): as the sequence (P54619 whole entry, one chain of several) above
T6 sequence (P54646 whole entry, looked up, one chain of several): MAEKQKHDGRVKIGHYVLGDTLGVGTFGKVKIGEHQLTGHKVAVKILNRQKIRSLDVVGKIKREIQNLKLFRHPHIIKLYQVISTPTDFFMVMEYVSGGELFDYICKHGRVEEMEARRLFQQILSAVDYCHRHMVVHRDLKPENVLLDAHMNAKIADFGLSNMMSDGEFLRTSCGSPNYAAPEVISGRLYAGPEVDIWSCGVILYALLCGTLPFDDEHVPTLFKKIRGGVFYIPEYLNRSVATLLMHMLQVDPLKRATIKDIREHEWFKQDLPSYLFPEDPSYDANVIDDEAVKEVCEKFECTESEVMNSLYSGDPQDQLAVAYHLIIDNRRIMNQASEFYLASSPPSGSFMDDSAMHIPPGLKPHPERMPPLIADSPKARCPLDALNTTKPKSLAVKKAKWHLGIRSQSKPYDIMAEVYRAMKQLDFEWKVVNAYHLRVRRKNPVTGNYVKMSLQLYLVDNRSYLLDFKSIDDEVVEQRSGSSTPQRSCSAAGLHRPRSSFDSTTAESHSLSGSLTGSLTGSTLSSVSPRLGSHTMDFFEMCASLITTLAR

[11] = target: T6, AMPK alpha2/beta2/gamma1 (Homo sapiens); assay: Activation of full length human His6-tagged AMPK alpha2/beta2/gamma1 expressed in Escherichia coli BL21-CodonPlus (DE3)-RIPL using FL-Peptide 7 substrate incubated for 2 hrs by fluorescence assay
[12] = Activation of rat liver AMPK assessed as increase in 33P-phosphorylation of SAMS peptide
[13] = species: Rattus norvegicus; assay: Activation of rat liver AMPK assessed as increase in biotinylated AMARAA peptide phosphorylation at 200 uM measured after 30 mins by DELFIA assay relative to control
[14] = target: T7, 5'-AMP-activated protein kinase catalytic subunit alpha-2/beta-1/gamma-2 (Homo sapiens, UniProt P54646+Q9UGJ0+Q9Y478); assay: Activation of recombinant human His-tagged AMPK alpha2 (2 to 552 residues)/beta1 (2 to 270 residues)/gamma2 (2 to 569 residues) expressed in baculovirus infected sf21 cells preincubated for 30 mins followed by biotinylated ACC-CREBp peptide substrate addition measured after 45 mins by HTRF assay relative to AMP
Target sequence in this assay (P54646 whole entry, one chain of several, the tested form may be a part): as the sequence (P54646 whole entry, looked up, one chain of several) above
Target sequence in this assay (Q9UGJ0 whole entry partner, one chain of several, the tested form may be a part): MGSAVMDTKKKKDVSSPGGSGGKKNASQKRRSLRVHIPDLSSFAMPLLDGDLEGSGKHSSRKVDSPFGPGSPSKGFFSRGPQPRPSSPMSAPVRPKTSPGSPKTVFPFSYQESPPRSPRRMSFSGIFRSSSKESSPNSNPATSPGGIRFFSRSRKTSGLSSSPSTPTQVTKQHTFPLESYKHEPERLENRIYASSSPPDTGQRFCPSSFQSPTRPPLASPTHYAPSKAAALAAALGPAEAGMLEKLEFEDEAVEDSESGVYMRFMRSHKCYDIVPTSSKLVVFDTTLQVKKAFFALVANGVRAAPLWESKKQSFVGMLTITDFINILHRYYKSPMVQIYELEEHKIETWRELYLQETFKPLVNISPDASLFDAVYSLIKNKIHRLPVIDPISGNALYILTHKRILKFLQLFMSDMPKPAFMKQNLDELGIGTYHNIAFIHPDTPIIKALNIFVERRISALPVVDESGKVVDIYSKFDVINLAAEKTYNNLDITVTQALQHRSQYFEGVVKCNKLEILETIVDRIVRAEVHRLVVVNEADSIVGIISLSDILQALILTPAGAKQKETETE

[15] = target: T7, 5'-AMP-activated protein kinase catalytic subunit alpha-2/beta-1/gamma-2; assay: Activation of recombinant human His-tagged AMPK alpha2 (2 to 552 residues)/beta1 (2 to 270 residues)/gamma2 (2 to 569 residues) expressed in baculovirus infected sf21 cells preincubated for 30 mins followed by biotinylated ACC-CREBp peptide substrate addition measured after 45 mins by HTRF assay
Target sequence in this assay (P54646 whole entry, one chain of several, the tested form may be a part): as the sequence (P54646 whole entry, looked up, one chain of several) above
Target sequence in this assay (Q9UGJ0 whole entry, one chain of several, the tested form may be a part): as the sequence (Q9UGJ0 whole entry partner, one chain of several, the tested form may be a part) above

[16] = target: T8, 5'-AMP-activated protein kinase subunit beta-2 (Mus musculus) (UniProt Q6PAM0); assay: Activation of AMPK beta2 in mouse C2C12 myotubes assessed as increase in phospho-ACC1 level at 1 uM after 2 hrs by ELISA relative to control
T8 sequence (whole entry): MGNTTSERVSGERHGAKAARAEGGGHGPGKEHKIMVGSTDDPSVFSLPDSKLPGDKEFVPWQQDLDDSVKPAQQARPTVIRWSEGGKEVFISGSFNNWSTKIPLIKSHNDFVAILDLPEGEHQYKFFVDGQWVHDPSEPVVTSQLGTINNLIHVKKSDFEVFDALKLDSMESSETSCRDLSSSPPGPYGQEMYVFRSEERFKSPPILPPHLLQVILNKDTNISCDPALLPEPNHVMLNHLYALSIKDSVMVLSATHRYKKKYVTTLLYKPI

[17] = target: T9, 5'-AMP-activated protein kinase subunit beta-1 (Homo sapiens) (UniProt Q9Y478); assay: Activation of AMPK beta1 in human HepG2 cells assessed as increase in phospho-ACC1 level at 1 uM after 2 hrs by ELISA relative to control; format: cell-based
T9 sequence (whole entry): T5 sequence (Q9Y478 whole entry)

[18] = species: Rattus norvegicus
Description: Allosteric activation of rat liver AMPK in presence of ATP relative to control

[19] = target: T3, AMP-activated protein kinase (AMPK) alpha-1/beta-1/gamma-1; assay: Activation of human recombinant AMPK alpha1/beta1/gamma1 expressed in Escherichia coli BL21-CodonPlus (DE3)-RIPL using SAMS peptide after 10 mins in presence of [gamma33P]ATP by scintillation counting
[20] = target: AMPK alpha1/beta1/gamma2 (Homo sapiens) (UniProt Q9UGJ0+Q9Y478+Q13131); assay: Activation of human recombinant AMPK alpha1/beta1/gamma2 expressed in Escherichia coli assessed as residual activity at 30 uM using AMARAA peptide relative to control
AMPK alpha1/beta1/gamma2 (Homo sapiens), sequence (Q13131 whole entry partner, one chain of several): as the sequence (Q13131 whole entry partner, one chain of several) above
AMPK alpha1/beta1/gamma2 (Homo sapiens), sequence (Q9UGJ0 whole entry, one chain of several): as the sequence (Q9UGJ0 whole entry partner, one chain of several, the tested form may be a part) above

[21] = target: AMP-activated protein kinase, AMPK; assay: Activation of recombinant AMPK (unknown origin) after 30 mins in presence of [gamma33P]ATP by scintillation proximity assay; set-up: species or system Homo sapiens
[22] = target: AMPK alpha2/beta1/gamma1 (Homo sapiens) (UniProt P54646+P54619+Q9Y478); assay: Activation of full length human recombinant AMPK alpha2/beta1/gamma1 expressed in baculovirus infected sf21 cells using 5'-FAM-SAMS peptide substrate after 45 mins by fluorescence assay relative to AMP
AMPK alpha2/beta1/gamma1 (Homo sapiens), sequence (P54619 whole entry partner, one chain of several): as the sequence (P54619 whole entry, one chain of several) above
AMPK alpha2/beta1/gamma1 (Homo sapiens), sequence (P54646 whole entry, one chain of several): as the sequence (P54646 whole entry, looked up, one chain of several) above

[23] = target: T6, AMPK alpha2/beta2/gamma1 (Homo sapiens); assay: Activation of full length human His6-tagged AMPK alpha2/beta2/gamma1 expressed in Escherichia coli BL21-CodonPlus (DE3)-RIPL preincubated for 10 mins followed by FL-Peptide 7 substrate addition measured after 2 hrs by fluorescence assay
[24] = target: T6, AMPK alpha2/beta2/gamma1 (Homo sapiens); assay: Activation of full length human His6-tagged AMPK alpha2/beta2/gamma1 expressed in Escherichia coli BL21-CodonPlus (DE3)-RIPL preincubated for 10 mins followed by FL-Peptide 7 substrate addition measured after 2 hrs by fluorescence assay relative to AMP
[25] = target: T2, AMP-activated protein kinase (AMPK) alpha-1/beta-1/gamma-1 (Homo sapiens); assay: Activation of full length human recombinant AMPK alpha1/beta1/gamma1 preincubated for 10 mins followed by FL-Peptide 7 addition measured after 2 hrs by fluorescence assay; format: protein-complex assay
[26] = target: T2, AMP-activated protein kinase (AMPK) alpha-1/beta-1/gamma-1 (Homo sapiens); assay: Activation of full length human recombinant AMPK alpha1/beta1/gamma1 preincubated for 10 mins followed by FL-Peptide 7 addition measured after 2 hrs by fluorescence assay relative to AMP; format: protein-complex assay
[27] = target: T3, AMP-activated protein kinase (AMPK) alpha-1/beta-1/gamma-1; assay: Activation of full length human recombinant AMPK alpha1/beta1/gamma1 expressed in baculovirus infected sf21 cells using SAMS peptide substrate after 30 mins in presence of [33P]ATP by TopCount analysis
[28] = target: T3, AMP-activated protein kinase (AMPK) alpha-1/beta-1/gamma-1; assay: Binding affinity for full length human N-terminal His/BAP-tagged AMPK alpha1/beta1/gamma1 expressed in Escherichia coli BL21-CodonPlus by surface plasmon resonance method
[29] = target: T3, AMP-activated protein kinase (AMPK) alpha-1/beta-1/gamma-1; assay: (§1) Activation of human recombinant AMPK GST-tagged alpha1/Myc-tagged beta1/HA-tagged gamma1 expressed in African green monkey COS7 cells assessed as increase in SAMS peptide phosphorylation measured after 10 mins in presence of [gamma33P]ATP by scintillation counting method relative to control; format: cell-based, COS-7
[30] = target: T2, AMP-activated protein kinase (AMPK) alpha-1/beta-1/gamma-1 (Homo sapiens); assay: as §1; format: cell-based; settings: COS-7
[31] = target: T2, AMP-activated protein kinase (AMPK) alpha-1/beta-1/gamma-1 (Homo sapiens); assay: (§2) Activation of full length human phosphorylated His-tagged AMPK alpha1/beta1/gamma1 expressed in Escherichia coli BL21-CodonPlus (DE3)-RIPL using SAMS peptide substrate preincubated for 15 mins followed by PP2A addition for 90 mins followed by substrate addition measured after 60 mins in presence of [33P]ATP by scintillation counting method relative to AMP
[32] = target: T3, AMP-activated protein kinase (AMPK) alpha-1/beta-1/gamma-1; assay: as §2, with “method” for “method relative to AMP”

CC1(C)CC(c2ccccc2NS(=O)(=O)c2cccc(F)c2)Nc2ccc(C(F)(F)F)cc21 (stereo unspecified)
EC30 [1]: 1140 nM

Cc1ccc(Oc2nc3cc(-c4ccc5c(ccn5C)c4)c(Cl)cc3[nH]2)cc1C(=O)O
%max [2]: 241%

Nc1nc(-c2ccc(-n3c(Cl)cc4[nH]c(=O)n(-c5cccc(C(=O)O)c5)c(=O)c43)cc2)cs1
pEC50 [3]: 6.20

O=c1[nH]c2sc(Cl)c(-c3ccc4c(c3O)CCCC4)c2c(O)c1-c1ccccc1
inhibition in vivo at 150 mg/kg [4]: 41% | Activity [5]: > 130%

O=C(O)c1c[nH]c2ccc(-c3ccc(-c4c(O)cccc4O)cc3)cc12
pEC50 [6]: > 5.30 | pEC50 [7]: > 6.30

Cc1ccc(Oc2nc3nc(-c4ccc(N5CCCC5)cc4)c(Cl)cc3[nH]2)cc1C(=O)O
pEC50 [8]: 9.00 | %max [9]: 681%

O[C@@H]1CO[C@H]2[C@@H]1OC[C@H]2Oc1cc2nc(-c3c(F)cc(N4CCOCC4)cc3F)c(F)cc2[nH]1
Emax [10]: 729% | EC150 [11]: 8.8 nM

N#Cc1c(O)c2c(-c3ccc(-c4ccccc4O)cc3)csc2[nH]c1=O
pEC50 [12]: 6.10

COc1ccc(NC(=O)Nc2ccc(Cn3cnc(O)c3C(N)=O)cc2)cc1
Activity [13]: 229%

COc1cc(C(O)=C2C(=O)Nc3cc(Cl)c(-c4ccc5c(ccn5C)c4)cc32)on1
Emax [14]: 256% | pEC50 [15]: 9.15 | Activity [16]: 114% | Activity [17]: 132%

O=C(O)c1ccccc1O
A0.5 [18]: 1 mM

Cc1cc(-c2ccc(/C=C3\S/C(=N\c4ccc(Cl)c(C(=O)O)c4)NC3=O)o2)c([N+](=O)[O-])cc1C
pEC50 [19]: 6.52

Cc1ccc(-c2c(O)c3c(-c4ccc5ccccc5c4O)c(Cl)sc3[nH]c2=O)cc1
Activity [20]: > 90%

O=C(O)c1ccc2c(c1)C1(CC1)CC(c1cc(Cl)ccc1F)N2 (stereo unspecified)
pEC50 [21]: 5.91

N#Cc1ccc(-c2ccc(-c3nc4nc(O[C@@H]5CO[C@H]6[C@@H]5OC[C@H]6O)[nH]c4cc3Cl)cc2)c(F)c1
%max [22]: 304%

CC(C)(C(=O)O)[C@H]1CC[C@H](Oc2nc3nc(-c4ccc(C5(CO)CC5)cc4)c(Cl)cc3[nH]2)CC1
EC150 [23]: 5 nM | %max [24]: 237% | EC150 [25]: 5.6 nM | %max [26]: 257%

Cc1ccc(Oc2nc3nc(-c4ccc(-c5ccccc5O)cc4)c(Cl)cc3[nH]2)cc1C(=O)O
EC150 [23]: 4.3 nM | %max [24]: 292% | EC150 [25]: 0.42 nM | %max [26]: 355%

CC(C)(O)c1ccc(-c2cc3nc(O[C@H]4CO[C@H](CO)[C@@H](O)C4)[nH]c3cc2Cl)cc1
pEC50 [8]: 8.40 | %max [9]: 379%

Cc1ccc(Oc2nc3cc(-c4ccc(N5CCOCC5)cc4)c(Cl)cc3[nH]2)cc1P(=O)(O)O
%max [2]: 224% | pEC50 [27]: 8.92

N#Cc1c(O)c2c(-c3ccc(-c4ccccc4O)cc3)c(Cl)sc2[nH]c1=O
pKd [28]: 7.13

Cc1cc(-c2c(O)c3cc(-c4ccc(N(C)C)cc4)c(Cl)cc3[nH]c2=O)on1
pEC50 [3]: 7.40

C(=N\c1cnc2ccccc2c1)/c1ccc2ccccc2n1
pEC50 [29]: 5.74 | fold change (FC) [30]: 2.7

CC1(C)Cc2cc(C(=O)O)ccc2NC1c1cccc(N2C(=O)OCC2(C)C)c1 (stereo unspecified)
EC30 [1]: 1150 nM

O=C(O)c1n[nH]c2cc(Cl)c(-c3ccc(C4(O)CCC4)cc3)cc12
%max [31]: 80% | pEC50 [32]: 8.08
